Measured values reported in patent US20230096766A1, “AMINO ACID HAVING FUNCTIONAL GROUP CAPABLE OF INTERMOLECULAR HYDROGEN BONDING, PEPTIDE COMPOUND CONTAINING SAME AND METHOD FOR PRODUCTION THEREOF” (Chugai Seiyaku Kabushiki Kaisha, priority 2018, published 2023).
*1 amine or outer side, *2 acyl side, *3 side chain or, on linkers, in order; H or OH if unused. Where a SMILES comes first, the peptide text is derived from it. Bridges are numbered along the chain shown (N, C = ends). [ ]: non-standard residue; d: D form. The star is where a group is joined. ξ: configuration not given here. dhPhe(4-CONHMe,3-OMe) = CNC(=O)c1ccc(CC[C@@H](N)C(=O)O)cc1OC; hPhe(3-OMe,4-CONHMe) = CNC(=O)c1ccc(CC[C@H](N)C(=O)O)cc1OC; NMeAbu(4-morpholino) = CN[C@@H](CCN1CCOCC1)C(=O)O; X10 = CN([C@@H](CCN1CCC(F)(F)CC1)C(=O)[*:2])[*:1]; Phe(4-COOH) = N[C@@H](Cc1ccc(C(=O)O)cc1)C(=O)O; NMePhe(3-Cl) = CN[C@@H](Cc1cccc(Cl)c1)C(=O)O; Ala(4-thiazolyl) = N[C@@H](Cc1cscn1)C(=O)O; NMeW = CN[C@@H](Cc1c[nH]c2ccccc12)C(=O)O; NMehPhe = CN[C@@H](CCc1ccccc1)C(=O)O; X9 = O=C([C@@H](CN[*:1])COCCO)[*:2]; Propyl(2,2-Me2,3-OH) = CC(C)(CO)C*; X6 = O=C([C@H](CCCCO)N[*:1])[*:2]; NMeF = CN[C@@H](Cc1ccccc1)C(=O)O; NMeGABA = CN(CCCC(=O)[*:2])[*:1]; NMeD = CN[C@@H](CC(=O)O)C(=O)O; NMeL = CN[C@@H](CC(C)C)C(=O)O; NMeV = CN[C@H](C(=O)O)C(C)C; ξIle = CC[C@H](C)C(N)C(=O)O; NMeA = CN[C@@H](C)C(=O)O; Piperidide = C1CCN(*)CC1; X8 = C1COC[C@@H](C*)N1; Me2NCH2CH2 = CN(C)CC*; NBuGly = CCCCNCC(=O)O; NPrGly = CCCNCC(=O)O; Propyl(3-OH) = OCCC*; N(OH)Me = CN(O)*; Sar = CNCC(=O)O; tBu = CC(C)(C)*

Experiment: in vitro
Conditions: human, Caco-2, Caco-2

Structure (SMILES)	Papp [×10⁻⁶ cm/s]
CCCCN1CC(=O)N(C)[C@@H](Cc2ccccc2)C(=O)N[C@@H](CC(C)C)C(=O)N(C)[C@@H](CC(C)C)C(=O)N[C@@H]([C@@H](C)O)C(=O)N(C)CC(=O)N(C)[C@@H](Cc2ccccc2)C(=O)N(C)[C@@H](CCN2CCC(F)(F)CC2)C(=O)N[C@@H](CC(C)C)C(=O)N(C)[C@@H](C(C)C)C(=O)N[C@H](C(=O)N2CCCCC2)CC1=O [pd395] ([NBuGly][NMeF]L[NMeL]T[Sar][NMeF][X10]L[NMeV]D-Piperidide; lactam N-11)	1.7
CCCCN1CC(=O)N(C)[C@@H](CC(C)C)C(=O)N[C@@H](COC(C)(C)C)C(=O)N(C)[C@@H](Cc2ccccc2)C(=O)N(C)[C@@H](C(C)C)C(=O)N[C@H](C(=O)N2CCCCC2)CC(=O)N[C@H](CC(C)C)C(=O)N(C)[C@@H](Cc2ccccc2)C(=O)N[C@@H](CC(C)C)C(=O)N(C)[C@@H](CCN2CCOCC2)C(=O)N[C@@H]([C@@H](C)O)C1=O [pd452] ([dL][NMeF]L[NMeAbu(4-morpholino)]T[NBuGly][NMeL]S(tBu)[NMeF][NMeV]D-Piperidide; lactam N-11)	1.3
CCCCN1CC(=O)N(C)[C@@H](CC(C)C)C(=O)N[C@@H](COC(C)(C)C)C(=O)N(C)[C@@H](Cc2ccccc2)C(=O)N(C)[C@@H](C(C)C)C(=O)N[C@H](C(=O)N2CCCCC2)CC(=O)N[C@H](C(C)C)C(=O)N(C)[C@@H](Cc2ccccc2)C(=O)N[C@@H](COCCN(C)C)C(=O)N(C)[C@@H](CC(C)C)C(=O)N[C@@H]([C@@H](C)O)C1=O [pd53] ([dV][NMeF]S(Me2NCH2CH2)[NMeL]T[NBuGly][NMeL]S(tBu)[NMeF][NMeV]D-Piperidide; lactam N-11)	0.14
CCCCN1CC(=O)N(C)[C@@H](C(C)C)C(=O)N[C@H](C(=O)N2CCCCC2)CC(=O)N(C)[C@@H](C)C(=O)N[C@@H](COCCN(C)C)C(=O)N(C)[C@@H](CC(C)C)C(=O)N(C)[C@@H](Cc2ccccc2)C(=O)N[C@@H](CC(C)C)C(=O)N(C)[C@@H](Cc2ccccc2)C(=O)N(C)[C@@H](CC(C)C)C(=O)N[C@@H]([C@@H](C)O)C1=O [pd56] ([NMeA]S(Me2NCH2CH2)[NMeL][NMeF]L[NMeF][NMeL]T[NBuGly][NMeV]D-Piperidide; lactam N-11)	0.12

Same assay, conditions: human, Caco-2, Caco-2 (cm/sec)

Structure (SMILES)	Papp [×10⁻⁶ cm/s]
CC[C@H](C)[C@@H]1NC(=O)[C@H](CC(C)C)N(C)C(=O)CCCN(C)C(=O)C[C@@H](C(=O)N2CCCCC2)NC(=O)[C@H](CC(C)C)N(C)C(=O)[C@H](CC(C)C)N(C)C(=O)[C@H]([C@@H](C)O)NC(=O)[C@H](CC(C)C)N(C)C(=O)[C@H](Cc2ccc(C(=O)N(C)O)cc2)NC(=O)[C@H](CC(C)C)N(C)C(=O)[C@H](Cc2ccccc2)N(C)C1=O [AP251] ([NMeGABA][NMeL]I[NMeF][NMeL][Phe(4-COOH)](N(OH)Me)[NMeL]T[NMeL][NMeL]D-Piperidide; lactam N-11)	0.03
CC(C)C[C@H]1C(=O)N[C@@H](C(C)C)C(=O)N(C)[C@@H](CCc2ccccc2)C(=O)N(C)[C@@H](CCc2ccccc2)C(=O)N[C@@H](CCCCO)C(=O)N(C)[C@@H](CC(C)C)C(=O)N[C@@H]([C@@H](C)O)C(=O)N(C)[C@@H](CC(C)C)C(=O)N(C)[C@@H](CC(C)C)C(=O)N[C@H](C(=O)N2CCCCC2)CC(=O)N(C)CCCC(=O)N1C [Compound B04] ([NMeGABA][NMeL]V[NMehPhe][NMehPhe][X6][NMeL]T[NMeL][NMeL]D-Piperidide; lactam N-11)	0.07
CC(C)C[C@@H]1NC(=O)[C@H](Cc2ccccc2)N(C)C(=O)[C@H](COC(C)(C)C)NC(=O)[C@H](Cc2ccccc2)N(C)C(=O)[C@H](C)N(C)C(=O)[C@H](CC(C)C)N(C)C(=O)[C@H]2CCCN2C(=O)C[C@@H](C(=O)N2CCCCC2)N(C)C(=O)[C@H](Cc2ccccc2)N(C)C(=O)[C@H]([C@@H](C)O)NC(=O)[C@H](C(C)C)N(C)C1=O [pd219] ([dP][NMeL][NMeA][NMeF]S(tBu)[NMeF]L[NMeV]T[NMeF][NMeD]-Piperidide; lactam N-11)	1.1
CCCCN1CC(=O)N(C)[C@@H](CC(C)C)C(=O)N[C@@H](COC(C)(C)C)C(=O)N(C)[C@@H](Cc2ccccc2)C(=O)N(C)[C@@H](CC(C)C)C(=O)N[C@H](C(=O)N2CCCCC2)CC(=O)N[C@H](CC(C)C)C(=O)N(C)[C@@H](Cc2ccccc2)C(=O)N[C@@H](COCCCO)C(=O)N(C)[C@@H](CC(C)C)C(=O)N[C@@H]([C@@H](C)O)C1=O [AP89] ([dL][NMeF]S(Propyl(3-OH))[NMeL]T[NBuGly][NMeL]S(tBu)[NMeF][NMeL]D-Piperidide; lactam N-11)	0.12
CCCCN1CC(=O)N(C)[C@@H](Cc2ccccc2)C(=O)N(C)[C@@H](CC(C)C)C(=O)N[C@@H](COCC(C)(C)CO)C(=O)N(C)[C@@H](CC(C)C)C(=O)N[C@H](C(=O)N2CCCCC2)CC(=O)N(C)CC(=O)N(C)[C@@H](Cc2ccccc2)C(=O)N[C@@H](C(C)C)C(=O)N(C)[C@@H](CC(C)C)C(=O)N[C@@H]([C@@H](C)O)C1=O [AP124] ([Sar][NMeF]V[NMeL]T[NBuGly][NMeF][NMeL]S(Propyl(2,2-Me2,3-OH))[NMeL]D-Piperidide; lactam N-11)	1.6
CCCN1CC(=O)N(C)[C@@H](CC(C)C)C(=O)N[C@@H](CC(C)C)C(=O)N(C)[C@@H](Cc2ccccc2)C(=O)N(C)[C@@H](CC(C)C)C(=O)N[C@H](C(=O)N2CCCCC2)CC(=O)N[C@H](CC(C)C)C(=O)N(C)[C@@H](Cc2ccccc2)C(=O)NC[C@@H](COCCO)C(=O)N(C)[C@@H](CC(C)C)C(=O)N[C@@H]([C@@H](C)O)C1=O [AP127] ([dL][NMeF][X9][NMeL]T[NPrGly][NMeL]L[NMeF][NMeL]D-Piperidide; lactam N-11)	0.3
CC(C)C[C@@H]1NC(=O)[C@H](Cc2ccccc2)N(C)C(=O)[C@H](COC(C)(C)C)NC(=O)[C@H](Cc2ccccc2)N(C)C(=O)[C@H](C)N(C)C(=O)[C@H](CC(C)C)N(C)C(=O)[C@H](C)N(C)C(=O)C[C@@H](C(=O)N2CCCCC2)N(C)C(=O)[C@H](Cc2ccccc2)N(C)C(=O)[C@H]([C@@H](C)O)NC(=O)[C@H](C(C)C)N(C)C1=O [pd213] ([NMeA][NMeL][NMeA][NMeF]S(tBu)[NMeF]L[NMeV]T[NMeF][NMeD]-Piperidide; lactam N-11)	1.3
CC(C)C[C@H]1C(=O)N(C)[C@@H](Cc2c[nH]c3ccccc23)C(=O)N(C)[C@@H](Cc2ccccc2)C(=O)N[C@@H]([C@@H](C)O)C(=O)N(C)[C@@H](C)C(=O)N(C)[C@@H](CC(C)C)C(=O)N[C@H](C(=O)N2CCCCC2)CC(=O)N(C)[C@@H](C)C(=O)N(C)[C@@H](CC(C)C)C(=O)N(C)[C@@H](CC(C)C)C(=O)N[C@@H](C(C)C)C(=O)N1C [pd109] ([NMeA][NMeL][NMeL]V[NMeL][NMeW][NMeF]T[NMeA][NMeL]D-Piperidide; lactam N-11)	0.0092
CCCCN1CC(=O)N(C)[C@@H](Cc2ccccc2)C(=O)N(C)[C@@H](CC(C)C)C(=O)N[C@@H](COC[C@@H]2COCCN2)C(=O)N(C)[C@@H](CC(C)C)C(=O)N[C@H](C(=O)N2CCCCC2)CC(=O)N(C)CC(=O)N(C)[C@@H](CC(C)C)C(=O)NC([C@@H](C)CC)C(=O)N(C)[C@@H](CC(C)C)C(=O)N[C@@H]([C@@H](C)O)C1=O (stereo partly drawn) [AP245] ([Sar][NMeL][ξIle][NMeL]T[NBuGly][NMeF][NMeL]S(X8)[NMeL]D-Piperidide; lactam N-11)	0.1
CCCCN1CC(=O)N(C)[C@@H](Cc2ccccc2)C(=O)N(C)[C@@H](CC(C)C)C(=O)N[C@@H](CCc2ccc(C(=O)NC)c(OC)c2)C(=O)N(C)[C@@H](CC(C)C)C(=O)N[C@H](C(=O)N2CCCCC2)CC(=O)N(C)CC(=O)N(C)[C@@H](CC(C)C)C(=O)N[C@@H]([C@@H](C)CC)C(=O)N(C)[C@@H](CC(C)C)C(=O)N[C@@H]([C@@H](C)O)C1=O [AP207] ([Sar][NMeL]I[NMeL]T[NBuGly][NMeF][NMeL][hPhe(3-OMe,4-CONHMe)][NMeL]D-Piperidide; lactam N-11)	0.51
CCCCN1CC(=O)N(C)[C@@H](Cc2ccccc2)C(=O)N(C)[C@@H](CC(C)C)C(=O)N[C@H](CCc2ccc(C(=O)NC)c(OC)c2)C(=O)N(C)[C@@H](CC(C)C)C(=O)N[C@H](C(=O)N2CCCCC2)CC(=O)N(C)CC(=O)N(C)[C@@H](CC(C)C)C(=O)N[C@@H]([C@@H](C)CC)C(=O)N(C)[C@@H](CC(C)C)C(=O)N[C@@H]([C@@H](C)O)C1=O [AP215] ([Sar][NMeL]I[NMeL]T[NBuGly][NMeF][NMeL][dhPhe(4-CONHMe,3-OMe)][NMeL]D-Piperidide; lactam N-11)	0.43
CC(C)C[C@@H]1NC(=O)[C@H](Cc2ccccc2)N(C)C(=O)[C@@H](C(C)C)NC(=O)C[C@@H](C(=O)N2CCCCC2)NC(=O)[C@H](CC(C)C)N(C)C(=O)[C@H](Cc2cccc(Cl)c2)N(C)C(=O)[C@H](COCCCO)NC(=O)[C@H](CC(C)C)N(C)C(=O)CN(C)C(=O)[C@H]([C@@H](C)O)NC(=O)[C@H](CC(C)C)N(C)C1=O [AP90] ([dV][NMeF]L[NMeL]T[Sar][NMeL]S(Propyl(3-OH))[NMePhe(3-Cl)][NMeL]D-Piperidide; lactam N-11)	3.3
CC(C)C[C@@H]1NC(=O)[C@H](Cc2ccccc2)N(C)C(=O)[C@H](C)NC(=O)C[C@@H](C(=O)N2CCCCC2)N(C)C(=O)[C@H](Cc2ccccc2)N(C)C(=O)[C@H](Cc2ccccc2)N(C)C(=O)[C@H](COC(C)(C)C)NC(=O)[C@H](CC(C)C)N(C)C(=O)CN(C)C(=O)[C@H]([C@@H](C)O)NC(=O)[C@H](CC(C)C)N(C)C1=O [pd209] (A[NMeF]L[NMeL]T[Sar][NMeL]S(tBu)[NMeF][NMeF][NMeD]-Piperidide; lactam N-11)	1.7

Same assay, conditions: human, Caco-2, Caco-2 (cm/sec) Papp

Structure (SMILES)	Papp [×10⁻⁶ cm/s]
CC(C)C[C@H]1C(=O)N(C)[C@@H](Cc2ccccc2)C(=O)N(C)[C@@H](Cc2ccccc2)C(=O)N[C@@H]([C@@H](C)O)C(=O)N(C)[C@@H](C)C(=O)N(C)[C@@H](Cc2ccccc2)C(=O)N[C@H](C(=O)N2CCCCC2)CC(=O)N(C)[C@@H](C)C(=O)N(C)[C@@H](Cc2ccccc2)C(=O)N(C)[C@@H](CC(C)C)C(=O)N[C@@H](C(C)C)C(=O)N1C [pd233] ([NMeA][NMeF][NMeL]V[NMeL][NMeF][NMeF]T[NMeA][NMeF]D-Piperidide; lactam N-11)	0.17
CC(C)C[C@@H]1NC(=O)[C@H](CC(C)C)N(C)C(=O)[C@H](CC(C)C)N(C)C(=O)CNC(=O)[C@H](Cc2ccccc2)N(C)C(=O)[C@H](Cc2cscn2)NC(=O)[C@H](CC(C)C)N(C)C(=O)[C@H](Cc2ccccc2)NC(=O)[C@H](C)NC(=O)C[C@@H](C(=O)N(C)[C@@H](Cc2ccccc2)C(=O)N[C@@H](C)C(=O)N2CCCCC2)NC1=O [pd235] (AF[NMeL][Ala(4-thiazolyl)][NMeF]G[NMeL][NMeL]LD[NMeF]A-Piperidide; lactam N-10)	0.1
